Assay results from ChEMBL document CHEMBL1201862, “PubChem BioAssay data set” (2004).
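Grown in 96-well plates, cells were treated for 48 hours with each compound at five concentrations. Insufficient inhibition: endpoint recorded as highest concentration tested. GI50: concentration for 50% inhibition of growth.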 Calls of active or inactive are those of the source. Rule as the data show it: active = GI50 up to about 1.1 µM and inactive = higher. Bridge positions count the residues as written; N and C are the ends. Square brackets hold non-standard residues; d marks the D form. Peptide text beside a SMILES is read from it. * marks the point of attachment. Cbz = O=C(OCc1ccccc1)*; Dab = NCC[CH](N)C(=O)O; Bn = c1ccc(C*)cc1

Assays:
Assay in all cases: NCI tumour cell line growth inhibition, 48 h
786-0 = test system: 786-0
ACHN = test system: ACHN
CAKI-1 = test system: CAKI-1
CCRF-CEM = test system: CCRF-CEM
COLO 205 = test system: COLO 205
DU-145 = test system: DU-145
EKVX = test system: EKVX
HCC 2998 = test system: HCC 2998
HCT-116 = test system: HCT-116
HCT-15 = test system: HCT-15
HL-60 = test system: HL-60
HOP-62 = test system: HOP-62
HOP-92 = test system: HOP-92
HT-29 = test system: HT-29
Hs-578T = test system: Hs-578T
IGROV-1 = test system: IGROV-1
K562 = test system: K562
KM12 = test system: KM12
LOX IMVI = test system: LOX IMVI
M14 = test system: M14
MCF7 = test system: MCF7
MDA-MB-231 = test system: MDA-MB-231
MDA-MB-435 = test system: MDA-MB-435
MDA-N = test system: MDA-N
MOLT-4 = test system: MOLT-4
Malme-3M = test system: Malme-3M
NCI-H226 = test system: NCI-H226
NCI-H23 = test system: NCI-H23
NCI-H460 = test system: NCI-H460
NCI-H522 = test system: NCI-H522
NCI/ADR-RES = test system: NCI/ADR-RES
OVCAR-3 = test system: OVCAR-3
OVCAR-4 = test system: OVCAR-4
OVCAR-5 = test system: OVCAR-5
OVCAR-8 = test system: OVCAR-8
PC-3 = test system: PC-3
RPMI-8226 = test system: RPMI-8226
RXF 393 = test system: RXF 393
SF-268 = test system: SF-268
SF-295 = test system: SF-295
SF-539 = test system: SF-539
SK-MEL-28 = test system: SK-MEL-28
SK-MEL-5 = test system: SK-MEL-5
SK-OV-3 = test system: SK-OV-3
SN12C = test system: SN12C
SNB-19 = test system: SNB-19
SR = test system: SR
SW-620 = test system: SW-620
T47D = test system: T47D
TK-10 = test system: TK-10
U-251 = test system: U-251
UACC-257 = test system: UACC-257
UACC-62 = test system: UACC-62
A498 = test system: A498
A549 = test system: A549
SK-MEL-2 = test system: SK-MEL-2
SNB-75 = test system: SNB-75
UO-31 = test system: UO-31

Measured: GI50

CC(C)CC1NC(=O)C(Cc2ccccc2)NC(=O)C(Cc2ccccc2)NC(=O)C(NC(=O)C(Cc2ccc(OCc3ccccc3)cc2)NC(=O)OCc2ccccc2)CCNC1=O (centres undefined) (Cbz-Y(Bn)[Dab]FFL; lactam 2-C; configuration not given here)
41.3 µM: HCT-15
inactive: 786-0 41.1 µM | ACHN > 100 µM | CAKI-1 > 100 µM | CCRF-CEM 33.7 µM | COLO 205 > 100 µM | DU-145 > 100 µM | EKVX > 100 µM | HCC 2998 > 100 µM | HCT-116 > 100 µM | HL-60 > 100 µM | HOP-62 > 100 µM | HOP-92 40.2 µM | HT-29 > 100 µM | Hs-578T > 100 µM | IGROV-1 78.5 µM | K562 > 100 µM | KM12 64.7 µM | LOX IMVI > 100 µM | M14 18.6 µM | MCF7 38.8 µM | MDA-MB-231 16.4 µM | MDA-MB-435 30.4 µM | MDA-N 36.1 µM | MOLT-4 14.6 µM | Malme-3M 74.3 µM | NCI-H226 > 100 µM | NCI-H23 87.1 µM | NCI-H460 35.1 µM | NCI-H522 23 µM | NCI/ADR-RES > 100 µM | OVCAR-3 > 100 µM | OVCAR-4 47.2 µM | OVCAR-5 > 100 µM | OVCAR-8 > 100 µM | PC-3 68.2 µM | RPMI-8226 > 100 µM | RXF 393 > 100 µM | SF-268 > 100 µM | SF-295 > 100 µM | SF-539 > 100 µM | SK-MEL-28 > 100 µM | SK-MEL-5 76.4 µM | SK-OV-3 > 100 µM | SN12C > 100 µM | SNB-19 > 100 µM | SR 63.1 µM | SW-620 > 100 µM | T47D 20.4 µM | TK-10 32.6 µM | U-251 29.4 µM | UACC-257 32.1 µM | UACC-62 8.47 µM

C[C@]12C[C@@H](OC(=O)[C@]1(C)O)[C@@H]([C@]1(O)CC[C@H]3[C@@H]4C[C@H]5O[C@]56C[C@H]5O[C@H]5C(=O)[C@]6(C)[C@H]4CC[C@@]31C)C2
> 50 µM: HCT-15
inactive: 786-0 > 50 µM | A498 > 50 µM | A549 > 50 µM | ACHN > 50 µM | CAKI-1 > 50 µM | CCRF-CEM > 50 µM | COLO 205 > 50 µM | DU-145 > 50 µM | EKVX > 50 µM | HCC 2998 > 50 µM | HCT-116 > 50 µM | HL-60 > 50 µM | HOP-62 > 50 µM | HOP-92 > 50 µM | HT-29 > 50 µM | Hs-578T > 50 µM | IGROV-1 > 50 µM | K562 > 50 µM | KM12 > 50 µM | M14 > 50 µM | MCF7 > 50 µM | MDA-MB-231 > 50 µM | MDA-MB-435 > 50 µM | MDA-N > 50 µM | MOLT-4 > 50 µM | Malme-3M > 5 µM | NCI-H226 > 50 µM | NCI-H23 > 50 µM | NCI-H460 > 50 µM | NCI-H522 > 50 µM | NCI/ADR-RES > 50 µM | OVCAR-4 27.5 µM | OVCAR-5 > 50 µM | OVCAR-8 > 50 µM | PC-3 > 50 µM | RPMI-8226 > 50 µM | RXF 393 > 50 µM | SF-268 > 50 µM | SF-295 > 50 µM | SF-539 > 50 µM | SK-MEL-28 > 50 µM | SK-MEL-2 > 50 µM | SK-MEL-5 > 50 µM | SK-OV-3 > 50 µM | SN12C > 50 µM | SNB-19 > 50 µM | SNB-75 36 µM | SR 14.7 µM | SW-620 > 50 µM | T47D > 50 µM | TK-10 > 50 µM | U-251 > 50 µM | UACC-257 > 50 µM | UACC-62 > 50 µM | UO-31 > 50 µM
